Test results taken from patent publication US11020337B2, “Aspartyl-dipeptides for skin care and cosmetic use” (Cysal GmbH, priority 2016, dated 2021).

Tests used:
[1] = test system: human skin; assay: In-vivo skin elasticity test (cutometer MPA 580, R2-values); settings: 4 weeks; for improvement in skin elasticity, treated area: twice a day
Description: (§1) Panelists: The test panel included 5 adult female volunteers with dry skin, elasticity less than average and crow's feet wrinkles next to the eyes. At the beginning of the application test all subjects have been checked by a dermatologist. Only subjects were allowed to join the trial with no pathological skin modifications diagnosed. During the application test all subjects had in case of acute skin irritations access to daily consultations from an attending medical specialist who was accompanying the test. Daily consultations about the skin conditions through the test-accompanying medical doctor were possible.
(§2) Experimental application of test-products: Test areas were around 3 cm in diameter. The test products were applied on the volar forearm (5% and 10% aqueous solutions; skin elasticity and hydration tests) as well as the crows's feet wrinkles (5% aqueous solution). The application of the preparations have been done twice a day during the whole test period (4 weeks). The subjects have been instructed not to use other care products in this test area. Untreated skin areas were used as control.
Elasticity test: The test was performed with the cutometer MPA 580 Fa. Courage+Khazaka electronics GmbH. The principle of measurement is based on the suction/elongation principle. To obtain start conditions the instrument was adjusted for 450 mbar low pressure. The suction time was defined to 5 secs. The relaxation time (abrupt loss of low pressure) was fixed to 3 secs. All measurements have been repeated three times for each test and control areas. Afterwards a mean for R2-values obtained from three independent measurements per area has been calculated. To perform measurements the instrument was adjusted for the named parameters before the test was started. All parameter adjustments described in literature as mainly used and reliable remained unchanged during the measurements. The cutometry has been performed at the beginning and at the end of the application period. R2-values have been measured and analyzed for each subject.

[2] = test system: EpiDerm 3D-Epidermal skin models (normal human keratinocytes); assay: MTT-Vitality-Assay, in-vitro epidermal vitality/viability; assay type: cell-based; settings: 30 μl of 5% aqueous solution once a day
Protocol: (§3) Experimental application of test-products: In this study 30 μl of a 5% aqueous solution of the test substances were applied as follows using a calibrated pipette:
(§4) Application was done in duplicates (2 models) at all time points and models were cultured and analyzed in parallel under identical conditions.
(§5) EpiDerm 3D-Epidermal skin models: Nowadays in vitro test procedures are a very good alternative to animal experiments and become increasingly important for the cosmetic industry. For cosmetic products which are used over a longer period, dermatological tests for harmlessness are an essential prerequisite for a high application safety and customer satisfaction. During the development of new cosmetic products biological effects of particular active ingredients or complete formulations turn into focus of cosmetic interests. The human EpiDerm skin model is an in vitro reconstructed multilayered epithelial tissue which is cultured of normal human keratinocytes. […] The model is mitotically as well as metabolically active and expresses typical differentiation marker like pro-fillagrin 1 and cytokeratin 1/10.
This term summarizes all metabolic activities which cells need for their basic requirements as well as for growth and proliferation. An established method to measure vitality of cells and tissues is the MTT-Vitality-Assay. […] The formazan crystals precipitate into the cellular cytosol, whereby the amount of precipitate correlates quantitatively with the general cellular vitality. Therefore the MTT-Assay can be considered as an indicator for the vitality or “Fitness” of a tissue, because cellular processes like respiration and energy extraction lead to the reduction of MTT.
Aim of this experiment was to examine the potential of the test substances to vitalize the tissue. For this purpose 3D-Epidermis skin models were used. […] After incubation period the bottom of model jars were dabbed with a sterile wipe to remove excessive medium/MTT mix. Models were transferred to a new sterile 24 well plate and 2 ml isopropyl was added subsequently. To avoid evaporation, plates were sealed with parafilm, covered with tinfoil and incubated 2 h on a shaker to extract formazan crystals. Optical density of released crystals of all extracts was determined at 570 nm. Measured values were analyzed and assessed. […] The vitality was derived from averages of determined ODs whereby the water treated, optimal cultured control was set as 100% vitality [vitality: 100*(ODtest substance/ODcontrol)].

[3] = test system: basal keratinocytes of 3D-Epidermal skin models; assay: Click-iT EdU proliferation rate of basal keratinocytes; assay type: cell-based, human; settings: topical, 30 μl of 5% aqueous solution
Protocol: as §3
Proliferation testing of basal Keratinocytes (Example 2): topically with air exposed models as reference and analysis time points for proliferation rate after 3 and 6 days.
as §4
as §5, with “1/10. […]” for “1/10.”
Evaluation of the proliferation rate: Out of every used skin model, 6 mm punch biopsies were taken, embedded in O.C.T.™, cryoconserved in the gaseous phase of liquid nitrogen and subsequently cut into 5-6 μm sections. Nuclei from every section were counted (blue fluorescence, DAPI) and the percentage of proliferating nuclei (red fluorescence) was determined.
Fluorescence microscopy: Click-iT®-EdU tagged cells were stained in red (λex 594 nm). […] Click-iT®-EdU and DAPI stained cells were recorded solely and merged subsequently. The fluorescence analysis and documentation was performed with the ZEISS, Axio Scope A1HAL 100. […]

[4] = test system: human skin; assay: In-vivo skin moisture (Corneometer CM 825); settings: 4 weeks; for improvement in skin moisture, treated area: twice a day
Description: as §1, §2
Skin moisture: this aspect was tested using the Corneometer CM 825 (Firma Courage+Khazaka). The test products were applied twice a day on the relevant pre-determined skin areas during the application period. The test persons were acclimatized for 45 minutes at a temperature of 22 degrees centigrade and 60% relative humidity before every measurement, then, the skin measurement values were measured at three different places within the respective testing areas. The recorded values were averaged. Untreated skin close to the test area was used as the control measurement area. Measurements were taken before the application and after four weeks of application. All measurements were performed at least 10-12 hours after the last application of the formerly used product resp. the test product.

[5] = test system: crow's feet wrinkles; assay: In-vivo single wrinkle depth (PRIMOS optical 3D measurement); parameters: species or system human; settings: 5% aqueous solution, four weeks, 5 subjects
Description: as §1
Experimental application of test-products: Test areas were around 3 cm in diameter. […]
Single wrinkles depth: Optical 3D measurement using a PRIMOS (Phaseshift Rapid In vivo Measurement Of Skin) compact portable system was used for this measurement. PRIMOS comact portable was applied on an area of 40×30 mm and digital fotos of the measured area were made. […] Finally, the measurement data generated were processed and then evaluated. […] With the PRIMOS software the changes in structure of the epidermis can be classified quantitatively with the aid of various standardized surface measurement parameters in accordance with DIN (Deutsche Industrie Norm, German industrial standards) and ISO (International Standards Organisation). […] The skinfold depth can be measured by determining the distances. […]

[6] = crow's feet area, 5% aqueous solution
[7] = volar forearm, 5% aqueous solution
[8] = volar forearm, 10% aqueous solution
[9] = 3 days incubation, air exposed models 11.21%
[10] = crow's feet (next to the eye), 5% aqueous solution
[11] = crow's feet (next to the eyes), 5% aqueous solution

SMILES	average improvement in skin elasticity after control area deduction [1, 6] [%]	average improvement in skin elasticity after control area deduction ([1]; forearm, 5% aqueous solution) [%]	average improvement in skin elasticity after control area deduction ([1]; forearm, 10% aqueous solution) [%]	improvement in skin elasticity, treated area [1, 7]	improvement in skin elasticity, treated area [1, 8] [%]	vitality (MTT, water treated control = 100%) ([2]; 48 h systematical (systemic) incubation, FIG. 1) [%]	vitality (MTT, water treated control = 100%) ([2]; 48 h topical application, FIG. 2) [%]	vitality (MTT, water treated control = 100%) ([2]; 120 h systemical incubation, FIG. 3) [%]	vitality (MTT, water treated control = 100%) ([2]; 120 h topical application, FIG. 4) [%]	percentage of proliferative cells (nuclei) [3, 9] [%]	improvement in skin moisture, treated area [4, 10]	average improvement in skin moisture after control area deduction [4, 11] [%]	average improvement in skin moisture after control area deduction [4, 7] [%]	improvement in skin moisture, treated area [4, 7]	average improvement in skin moisture after control area deduction [4, 8] [%]	improvement in skin moisture, treated area [4, 8] [%]	average improvement in the wrinkle depth [5] [%]	improvement in skin elasticity, treated area ([1]; crow's feet, 5% aqueous solution) [%]	percentage of proliferative cells (nuclei) ([3]; 6 days incubation, air exposed models 17.11%) [%]
N=C(N)NCCC[C@H](NC(=O)C[C@H](N)C(=O)O)C(=O)O [β-L-aspartyl-L-arginine]	8.08	9.26	8.85	about 9.11%	~8.70	127.23	112.36	118.16	120.61	30.98	about 1.873%	1.56	0.82	about 1.126%	0.56	~0.871	16.4		
NCCCC[C@H](NC(=O)C[C@H](N)C(=O)O)C(=O)O [β-L-aspartyl-L-lysine]	11.21	6.18		about 6.03%						16.33	about 16.10%	15.79	1.74	about 2.05%			20.02	11.06	22.12
